# In patent US10253015B2, “Pyridinyl quinolinone derivatives as mutant-isocitrate dehydrogenase inhibitors” (FORMA TM2, Inc., priority 2014, dated 2019):
# Read-outs that look alike come from different tables or passages of the source.
# Columns and labels:
# [1] = molecular target: IDH1-R132C recombinant protein (Homo sapiens (Human), UniProt O75874, R132C); assay: IDH1-R132C enzymatic assay; type: biochemical
# Protocol: (§1) Assays were performed in a 384-well black plate. […] After the plate was centrifuged briefly, an aliquot of 10 μL of 2 mM α-ketoglutarate and 20 μM NADPH solution prepared in assay buffer was then added to each well and the reaction was maintained at 25° C. for 45 minutes. An aliquot of 10 μL of diaphorase solution (0.15 U/mL diaphorase and 30 μM Resazurin in assay buffer) was added to each well. […] The IC50 of a given compound was calculated by fitting the dose response curve of inhibition of NADPH consumption at a given concentration with the four parameter logistic equation.
# [2] = system: HCT116 isogenic IDH1-R132C mutant cells; assay: Cellular 2-HG assay using HCT116 mutant IDH1 cells (R132C); type: cell-based; settings: Homo sapiens, HCT-116; cellular 2-HG inhibition, 24 hours, RapidFire mass spectrometry; read-out: HCT IDH1 R132C Range IC50
# Protocol: (§2) HCT116 isogenic IDH1-R132H and IDH1-R132C mutant cells were cultured in growth media (McCoy's 5 A, 10% fetal bovine serum, 1× antibiotic-antimycotic solution and 0.3 mg/mL G418) in 5% CO2 in an incubator at 37° C. To prepare the assay, cells were trypsinized and resuspended in assay media (McCoy's 5 A with no L-glutamine, 10% fetal bovine serum, 1× antibiotic-antimycotic solution and 0.3 mg/mL G418). An aliquot of 10,000 cells/100 μL was transferred to each well of a clear 96-well tissue culture plate. The cells were incubated in 5% CO2 at 37° C. in an incubator overnight to allow for proper cell attachment. An aliquot of 50 μL of compound containing assay media were then added to each well and the assay plate was kept in 5% CO2 at 37° C. in an incubator for 24 hours. The media was then removed from each well and 150 μL of a methanol/water mixture (80/20 v/v) was added to each well. The plates were kept at −80° C. freezer overnight to allow for complete cell lysis. An aliquot of 125 μL of extracted supernatant was analyzed by RapidFire high-throughout-mass spectrometry (Agilent) to determine the cellular 2-HG level. The IC50 of a given compound was calculated by fitting the dose response curve of cellular 2-HG inhibition at a given concentration with the four parameter logistic equation
# [3] = system: HCT116 isogenic IDH1-R132H mutant cells; assay: Cellular 2-HG assay using HCT116 mutant IDH1 cells (R132H); type: cell-based; settings: Homo sapiens, HCT-116; cellular 2-HG inhibition, 24 hours, RapidFire mass spectrometry; read-out: HCT IDH1 R132H Range IC50
# Protocol: as §2
# [4] = molecular target: IDH1-R132H recombinant protein (Homo sapiens (Human), UniProt O75874, R132H); assay: IDH1-R132H enzymatic assay; type: biochemical
# Protocol: as §1
# [5] = inhibition of NADPH consumption, diaphorase/resazurin readout, read-out: Enzyme IDH1 R132C Range IC50
# [6] = inhibition of NADPH consumption, diaphorase/resazurin readout, read-out: Enzyme IDH1 R132H Range IC50
# Chain of IDH1-R132H recombinant protein (O75874 whole entry R132H): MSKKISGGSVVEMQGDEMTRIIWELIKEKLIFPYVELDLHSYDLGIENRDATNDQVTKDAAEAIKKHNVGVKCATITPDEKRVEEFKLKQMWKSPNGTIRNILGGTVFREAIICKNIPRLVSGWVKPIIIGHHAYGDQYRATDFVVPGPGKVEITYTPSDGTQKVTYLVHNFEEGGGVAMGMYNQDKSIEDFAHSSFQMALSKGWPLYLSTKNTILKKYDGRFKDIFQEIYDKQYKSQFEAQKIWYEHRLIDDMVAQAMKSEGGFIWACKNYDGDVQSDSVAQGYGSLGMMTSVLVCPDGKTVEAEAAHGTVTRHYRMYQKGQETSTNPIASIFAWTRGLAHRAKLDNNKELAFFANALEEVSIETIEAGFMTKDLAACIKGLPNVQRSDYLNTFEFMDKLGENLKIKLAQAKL
# Chain of IDH1-R132C recombinant protein (O75874 whole entry R132C): as the sequence (O75874 whole entry R132H) above, with H132C counted along it
SMILES,"IC50 [1, 5]",IC50 [2],IC50 [3],"IC50 [4, 6]",IC50 [1],IC50 [4]
"Cc1nc(N[C@@H](C)c2cc3cc(Cl)ccc3[nH]c2=O)ccc1C#N [Compound I-4, (S)-6-(1-(6-chloro-2-oxo-1,2-dihydroquinolin-3-yl)ethylamino)-2-methyl nicotinonitrile]",0.1 to 1 µM,0.1 to 1 µM,0.1 to 1 µM,< 0.1 µM,–,–
"Cc1cc(N[C@@H](C)c2cc3cc(Cl)ccc3[nH]c2=O)ncc1C#N [Compound I-5, (S)-6-((1-(6-chloro-2-oxo-1,2-dihydroquinolin-3-yl)ethyl)amino)-4-methyl nicotinonitrile]",0.1 to 1 µM,0.1 to 1 µM,0.1 to 1 µM,< 0.1 µM,–,–
"COc1nc(N[C@@H](C)c2cc3cc(Cl)ccc3[nH]c2=O)ccc1C#N [Compound I-6, 6-{[(1S)-1-(6-chloro-2-oxo-1,2-dihydroquinolin-3-yl)ethyl]amino}-2-methoxypyridine-3-carbonitrile]",0.1 to 1 µM,0.01 to 0.1 µM,0.1 to 1 µM,< 0.1 µM,–,–
"COc1nc(C#N)ccc1N[C@@H](C)c1cc2cc(Cl)ccc2[nH]c1=O [Compound I-7, 5-{[(1S)-1-(6-chloro-2-oxo-1,2-dihydroquinolin-3-yl)ethyl]amino}-6-methoxypyridine-2-carbonitrile]",1 to 10 µM,0.1 to 1 µM,0.1 to 1 µM,< 0.1 µM,–,–
"Cc1nc(NC(C)c2cc3cc(Cl)ccc3[nH]c2=O)ccc1C#N (centres unmarked) [Compound I-9, 6-{[1-(6-chloro-2-oxo-1,2-dihydroquinolin-3-yl)ethyl]amino}-2-methylpyridine-3-carbonitrile]",0.1 to 1 µM,> 1 µM,0.1 to 1 µM,0.1 to 1 µM,–,–
"C[C@H](Nc1nccc(N2CCOC2=O)c1F)c1cc2cc(Cl)ccc2[nH]c1=O [Compound I-14, 6-chloro-3-[(1S)-1-{[3-fluoro-4-(2-oxo-1,3-oxazolidin-3-yl)pyridin-2-yl]amino}ethyl]-1,2-dihydroquinolin-2-one]",0.1 to 1 µM,0.1 to 1 µM,0.1 to 1 µM,< 0.1 µM,–,–
"Cc1nc(NC(C)c2cc3cc(Cl)c(F)cc3[nH]c2=O)ccc1C#N (centres unmarked) [Compound I-21, 6-{[1-(6-chloro-7-fluoro-2-oxo-1,2-dihydroquinolin-3-yl)ethyl]amino}-2-methylpyridine-3-carbonitrile]",0.1 to 1 µM,0.1 to 1 µM,0.1 to 1 µM,< 0.1 µM,–,–
"Cc1nc(N[C@@H](C)c2cc3cc(Cl)c(F)cc3[nH]c2=O)ccc1C#N [Compound I-22, 6-{[(1S)-1-(6-chloro-7-fluoro-2-oxo-1,2-dihydroquinolin-3-yl)ethyl]amino}-2-methylpyridine-3-carbonitrile]",0.1 to 1 µM,0.1 to 1 µM,< 0.01 µM,< 0.1 µM,–,–
"COc1cc2[nH]c(=O)c(C(C)Nc3ccc(C#N)c(C)n3)cc2cc1Cl (centres unmarked) [Compound I-24, 6-{[1-(6-chloro-7-methoxy-2-oxo-1,2-dihydroquinolin-3-yl)ethyl]amino}-2-methylpyridine-3-carbonitrile]",–,0.1 to 1 µM,–,–,–,–
"COc1cc2[nH]c(=O)c([C@H](C)Nc3cc(OC)c(C#N)cn3)cc2cc1Cl [Compound I-25, 6-{[(1S)-1-(6-chloro-7-methoxy-2-oxo-1,2-dihydroquinolin-3-yl)ethyl]amino}-4-methoxypyridine-3-carbonitrile]",–,0.1 to 1 µM,0.01 to 0.1 µM,–,< 0.1 µM,< 0.1 µM
"COc1cc2[nH]c(=O)c([C@H](C)Nc3ccc(C#N)c(OC)n3)cc2cc1Cl [Compound I-26, 6-{[(1S)-1-(6-chloro-7-methoxy-2-oxo-1,2-dihydroquinolin-3-yl)ethyl]amino}-2-methoxypyridine-3-carbonitrile]",< 0.1 µM,0.01 to 0.1 µM,< 0.01 µM,< 0.1 µM,–,–
"Cc1nc(NC(C)c2cc3cc(Cl)c(OCc4ccccn4)cc3[nH]c2=O)ccc1C#N (centres unmarked) [Compound I-29, 6-({1-[6-chloro-2-oxo-7-(pyridin-2-ylmethoxy)-1,2-dihydroquinolin-3-yl]ethyl}amino)-2-methylpyridine-3-carbonitrile]",–,0.01 to 0.1 µM,0.01 to 0.1 µM,< 0.1 µM,–,–
